Experimental data as given in a melting point compilation (Tetko et al.; mined from patent text by program, amines drawn as free bases though some values may be those of a salt).

Structure (SMILES)	melting point [°C]
O=C(O)C(CCc1ccccc1)NS(=O)(=O)c1ccc2c(c1)S(=O)(=O)c1ccccc1O2 (stereo unspecified)	170 to 174
CNC(=O)c1cccnc1C	69 to 72
CSc1ncc2n1-c1ccc(Cl)cc1C(c1ccccc1F)=NC2	180 to 181
C=CCOc1ccc(C(C)(C)C)cc1C(C(N)=O)c1ccccc1 (stereo unspecified)	172 to 174
CC(C)(C)c1cc(C=C2CCN(CCO)C2=O)cc(C(C)(C)C)c1O	191
COCc1nc(C=O)c[nH]1	100 to 103
Cc1ccccc1S(=O)(=O)OC1C2C(C(=O)N1Cc1ccc3c(c1)OCO3)C(c1ccc(Br)cc1)N(C)C2(C)C (stereo unspecified)	172 to 173
O=C(Nc1ccc(F)cc1)c1ccc(OC(F)(F)F)c(Nc2cccc(C(F)(F)F)c2)c1	143 to 144
CC(C(=O)O)c1ccc2c(c1)C(=O)Cc1ccc(F)cc1S2 (stereo unspecified)	148
CN1CCc2c(sc3ncn(CCCl)c(=O)c23)C1	159 to 161
CN1C(=O)CCC2CC(C3=NNC(=O)CC3CO)=CC=C21 (stereo unspecified)	201 to 204
Cc1ccc(Nc2c3ccccc3nc3ccccc23)cc1[N+](=O)[O-]	> 280
Cc1c(C(=O)Nc2ccc(N3CCN(c4ccc(Cl)cc4)CC3)c(C#N)c2)cnn1-c1ccc(Cl)cc1	265
CNc1nc(-c2ccc(F)cc2)n(-c2ccc(SC)cc2)c(=O)c1C#N	219 to 222
CON1C=C2N=Nc3cc(-c4ccccc4)cnc3N2C1	225 to 227
C(=C1CCCc2cccnc21)c1ccccc1	58 to 59
CC(C)C(N)=NC(=Nc1ccccc1)N1CCOCC1	123 to 126
CCCCc1nc2cc3ccccc3cc2[nH]1	190
CC(C)C[C@H](NC(=O)OCC1c2ccccc2-c2ccccc21)C(=O)N[C@H]1CCOC1OCc1ccccc1 (stereo partly specified)	116 to 117
CC(O)(CSc1ccc(S(=O)(=O)c2ccccc2)cc1)C(F)(F)F (stereo unspecified)	100 to 102
COc1nc2cc([N+](=O)[O-])c(C)c(C(=O)NCCC(=O)OC(C)(C)C)c2nc1OC	140 to 142
CN(C)c1ccc(C=CC(=O)C=Cc2ccc(N(C)C)cc2)cc1	174 to 176
O=C1[C@@H](CCCO)O[C@H](c2ccccc2)c2ccccc2N1Cc1ccccc1 (relative stereo)	59 to 62
CCOc1ccc(F)c(N2Cc3cnc(NCCCCN(CC)CC)nc3N(C3CCCC3)C2=O)c1F	129 to 130
O=c1cc(O)nc2sc(CCC3CCCCC3)nn12	215 to 219
COCc1nc2cnc3ccccc3c2n1CC(C)(C)O	145 to 148

Structure (SMILES)	melting point [°C]
COC[C@H](C)NC(=O)c1c[nH]c2ncc(-c3nn(C)c4cc(F)c(F)cc34)nc12	295 to 297
O=c1cc(C2CCc3ccccc3C2)[nH]c2ccccc12 (racemic)	> 300
Cc1ncc(C(=O)N(C)Cc2cc(C(F)(F)F)cc(C(F)(F)F)c2)c(-c2ccccc2Br)n1	122
O=C1C(O)=C(O)C(=O)c2cc(Cl)ccc21	228 to 229
CCCCc1c(C(=O)OCC)cc(OC)c2ccc(OC)cc12	44 to 45
O=C(NCCCC(c1cc(F)ccc1F)S(=O)(=O)c1ccc(Cl)cc1)OCCI (stereo unspecified)	100 to 101
COC12CC(CN3CCC(c4c[nH]c5ccccc45)CC3)CN(C)C1Cc1c[nH]c3cccc2c13 (stereo unspecified)	222 to 227
COC(=O)c1ccc2[nH]cc(CCCCN3CCN(c4ccccc4OC)CC3)c2c1	195 to 196
COc1ccccc1N1CCN(CC(O)CCN2C(=O)c3ccccc3C2=O)CC1 (stereo unspecified)	192 to 194
Cc1nnc(-c2sc(N3CCN(Cc4ccccc4)C3=O)nc2C)[nH]1	284 to 287
CCOC(=O)C(c1c[nH]c2cccc(C(=O)OC)c12)C(C)[N+](=O)[O-] (stereo unspecified)	106 to 110
O=C1c2cc(F)ccc2-n2c1nc1cccc(F)c1c2=O	323 to 325
O=S(=O)(c1ccccc1)c1ncc(C(F)(F)F)cc1Cl	86 to 87
CCNC(=O)n1nc(Oc2ncc(C(F)(F)F)cc2Cl)cc1C(F)(F)F	52 to 54
Cc1nc2c(cc1C(=O)NC(=N)N)C(O)CCCC2 (stereo unspecified)	225 to 226
S=C(NC(=Nc1ccccc1)c1ccccc1)Nc1ccccc1	143 to 144
CC(=CC(=O)O)c1ccc2[nH]cc(-c3cc(C(C)(C)C)cc(C(C)(C)C)c3OCC(F)F)c2c1	135 to 145
CC(C)(C)OC(=O)C=Cc1cc2ccccc2o1	56 to 57
COc1ccc(O)c(C(=O)N2CC(Oc3ccc(NC(=O)OC(C)(C)C)cc3)C2)c1	152 to 153
C=CCOc1ccc(C(=O)Oc2ccc(OCCCCOC(=O)C(=C)C)cc2)cc1	62 to 63
Cc1cc(C)nc(NC(=O)NS(=O)(=O)C2CC3C=CC2O3)n1 (stereo unspecified)	125 to 145
O=C(O)c1c(Br)ccc(OC(F)(F)F)c1F	112
CC(C)(C)NC(=O)CCCCl	62.5 to 64
Cc1cc(Br)c(Cl)c(Cl)c1N	66 to 68
O=C(NO)c1ccc(CNC(=O)c2[nH]c(-c3ccccc3)cc2-c2ccc(F)c(F)c2)cc1	148 to 150
